Here are results for 8 compounds from ChEMBL document CHEMBL1139510, “Early absorption and distribution analysis of antitumor and anti-AIDS drugs: lipid membrane and plasma protein interactions” (J Med Chem, 2005).

What all share (type): ADME
Data set [1] concerns the target T1, Albumin (Homo sapiens, UniProt P02768). Briefly: Association rate constant for the interaction between the compound and serum albumin.
Data set [2] addresses T1, Albumin. The data set can be described thus: Equilibrium dissociation constant for the interaction between the compound and serum albumin.
Data set [3] addresses T1, Albumin. The data set can be described thus: Dissociation rate constant for the interaction between the compound and serum albumin.

T1 sequence (P02768 whole entry): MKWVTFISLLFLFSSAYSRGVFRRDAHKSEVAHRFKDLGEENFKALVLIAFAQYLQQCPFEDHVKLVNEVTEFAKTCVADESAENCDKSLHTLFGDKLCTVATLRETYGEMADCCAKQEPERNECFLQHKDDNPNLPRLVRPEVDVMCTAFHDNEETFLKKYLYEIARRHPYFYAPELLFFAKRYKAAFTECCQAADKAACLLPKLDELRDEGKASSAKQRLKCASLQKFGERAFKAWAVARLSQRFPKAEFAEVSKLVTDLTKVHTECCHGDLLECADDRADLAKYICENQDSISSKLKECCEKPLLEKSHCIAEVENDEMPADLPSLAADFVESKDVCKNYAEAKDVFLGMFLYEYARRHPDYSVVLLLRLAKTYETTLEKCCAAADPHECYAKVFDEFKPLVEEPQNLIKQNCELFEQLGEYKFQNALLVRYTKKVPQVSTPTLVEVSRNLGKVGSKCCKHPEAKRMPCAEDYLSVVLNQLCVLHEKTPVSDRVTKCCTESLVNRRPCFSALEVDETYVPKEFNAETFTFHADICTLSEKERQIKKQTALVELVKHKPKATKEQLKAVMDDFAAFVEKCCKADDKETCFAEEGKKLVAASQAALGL

As to `Cc1c(O)cccc1C(=O)N[C@@H](CSc1ccccc1)[C@H](O)CN1C[C@H]2CCCC[C@H]2C[C@H]1C(=O)NC(C)(C)C`, the kon at Albumin [1] (read-out: Kon1) was found to be 1800 M⁻¹ s⁻¹; on Albumin [1] (read-out: Kon2) it was 12.6 M⁻¹ s⁻¹. The values for the Kd on Albumin [2] (read-out: KD1) and on Albumin [2] (read-out: KD2) were 230 µM and 6 µM, respectively. The compound also showed a Koff1 on Albumin [3] of 0.413 s⁻¹.

With `CC(=O)O[C@@]1(C2/C(C)=C(/O)C(=O)C3=C(C)[C@@H](OC(=O)[C@H](O)[C@H](CC(C)C)NC(=O)OC(C)(C)C)C[C@@](O)([C@H]2OC(=O)c2ccccc2)C3(C)C)CO[C@@H]1CCO` (stereo partly specified), the kon at Albumin [1] (read-out: Kon1) worked out at 5900 M⁻¹ s⁻¹; on Albumin [1] (read-out: Kon2), 33.1 M⁻¹ s⁻¹. Besides, the Kd at Albumin [2] (read-out: KD1) was 319 µM; on Albumin [2] (read-out: KD2) it was 1820 µM. In addition, the Koff1 on Albumin [3] was found to be 1.875 s⁻¹. Further, the Koff2 on Albumin [3] was 0.045 s⁻¹.

Turning to `CC(C)(C)NC(=O)[C@@H]1C[C@@H]2CCCC[C@@H]2CN1C[C@@H](O)[C@H](Cc1ccccc1)NC(=O)[C@H](CC(N)=O)NC(=O)c1ccc2ccccc2n1`, the kon at Albumin [1] (read-out: Kon1) stood at 25000 M⁻¹ s⁻¹; on Albumin [1] (read-out: Kon2), 282 M⁻¹ s⁻¹. Further, the Kd amounted to 34 µM at Albumin [2] (read-out: KD1) and 301 µM at Albumin [2] (read-out: KD2). The compound also came in with a Koff1 at Albumin [3] of 0.856 s⁻¹. At Albumin [3], this compound returned a Koff2 of 0.085 s⁻¹.

Regarding `CC(=O)O[C@H]1C(=O)[C@@]2(C)C([C@H](OC(=O)c3ccccc3)[C@]3(O)C[C@H](OC(=O)[C@H](O)[C@@H](NC(=O)c4ccccc4)c4ccccc4)C(C)=C1C3(C)C)[C@]1(OC(C)=O)CO[C@@H]1C[C@@H]2OC(=O)CCC(=O)O` (stereo partly specified), the kon on Albumin [1] (read-out: Kon1) is 7300 M⁻¹ s⁻¹; on Albumin [1] (read-out: Kon2) it was 36.4 M⁻¹ s⁻¹. The Kd was determined as 192 µM at Albumin [2] (read-out: KD1) and 1170 µM on Albumin [2] (read-out: KD2). Further, the Koff1 on Albumin [3] was determined as 1.183 s⁻¹. The same compound showed a Koff2 on Albumin [3] of 0.033 s⁻¹.

Turning to `COC(=O)N[C@H](C(=O)N[C@@H](Cc1ccccc1)[C@@H](O)CN(Cc1ccc(-c2ccccn2)cc1)NC(=O)[C@@H](NC(=O)OC)C(C)(C)C)C(C)(C)C` [ATAZANAVIR], the kon is 9600 M⁻¹ s⁻¹ at Albumin [1] (read-out: Kon1) and 41.8 M⁻¹ s⁻¹ at Albumin [1] (read-out: Kon2). In addition, the Kd at Albumin [2] (read-out: KD1) was determined as 149 µM; on Albumin [2] (read-out: KD2), 599 µM. Besides, the Koff1 at Albumin [3] turned out to be 1.43 s⁻¹. On Albumin [3], this compound returned a Koff2 of 0.025 s⁻¹.

On to `Cc1cccc(C)c1OCC(=O)N[C@@H](Cc1ccccc1)[C@@H](O)C[C@H](Cc1ccccc1)NC(=O)[C@H](C(C)C)N1CCCNC1=O` [LOPINAVIR], for which the kon at Albumin [1] (read-out: Kon1) was found to be 25900 M⁻¹ s⁻¹; on Albumin [1] (read-out: Kon2), 10.1 M⁻¹ s⁻¹. Further, the Kd on Albumin [2] (read-out: KD1) was 24 µM; on Albumin [2] (read-out: KD2) it was 6 µM. This compound registered a Koff1 on Albumin [3] of 0.619 s⁻¹.

As to `CC(C)CN(C[C@@H](O)[C@H](Cc1ccccc1)NC(=O)O[C@H]1CCOC1)S(=O)(=O)c1ccc(N)cc1`, the kon on Albumin [1] (read-out: Kon1) is 22100 M⁻¹ s⁻¹; on Albumin [1] (read-out: Kon2) it was 208 M⁻¹ s⁻¹. Besides, the Kd at Albumin [2] (read-out: KD1) is 124 µM; on Albumin [2] (read-out: KD2), 328 µM. For the same compound, the Koff1 on Albumin [3] amounted to 2.75 s⁻¹. On Albumin [3], the Koff2 came out at 0.068 s⁻¹.

`CC(=O)O[C@@]12CO[C@@H]1C[C@H](O)[C@@]1(C)C(=O)[C@H](O)C3=C(C)[C@@H](OC(=O)[C@H](O)[C@@H](NC(=O)OC(C)(C)C)c4ccccc4)C[C@@](O)([C@@H](OC(=O)c4ccccc4)[C@H]21)C3(C)C.O.O.O` [DOCETAXEL]: the kon came to 7700 M⁻¹ s⁻¹ at Albumin [1] (read-out: Kon1) and 43.7 M⁻¹ s⁻¹ at Albumin [1] (read-out: Kon2). Also, the Kd stood at 199 µM at Albumin [2] (read-out: KD1) and 2110 µM on Albumin [2] (read-out: KD2). The compound also returned a Koff1 at Albumin [3] of 1.505 s⁻¹. This compound also showed a Koff2 on Albumin [3] of 0.069 s⁻¹.
